Source: PMC8879702, “Discovery of Small Molecule Activators of Chemokine Receptor CXCR4 That Improve Diabetic Wound Healing” (International Journal of Molecular Sciences, 2022)

How the values were obtained:
Format in all cases: cell-based
[1] = molecular target: T1, CXCR4 receptor (Homo sapiens, UniProt P61073); assay: primary 1536 w β-arrestin recruitment assay (CXCR4-bla U2OS cells, SDF-1α from R&D systems); set-up: host or cells: Tango CXCR4-bla U2OS cells; conditions: for Emax: U2OS
Procedure: In our effort to identify CXCR4 activators from the NIH Molecular Library Small Molecule Repository (MLSMR), we developed a primary screening assay to measure β-arrestin recruitment to the activated G-protein coupled receptor (GPCR) by a Florescence Resonance Energy Transfer (FRET) in U2OS cells, overexpressing the CXCR4 receptor engineered with a β-lactamase (bla) reporter system. CXCR4-bla cells plated in 1536 w were stimulated in the presence of 10 µM compound concentration. […] Using this approach, we successfully screened the NIH MLSMR of 370,620 compounds (Figure 1A,B) and identified 303 hits (hit rate = 0.08%). […] These compounds were graded according to activity and structure, resulting in 86 compounds that met the criteria as potential CXCR4 agonists for further characterization (Figure 1B). The workflow for high-throughput screening and this study is illustrated in Figure 1B.
Chemical stability, synthetic tractability, solubility and complete dose response and potency criteria led to the prioritization of the 5-aryl-2-cyclopropyl oxazole scaffold, represented by primary hit Compound 2 (Table 1). The early structure–activity relationship was established around the 5-aryl-2-cyclopropyl oxazole core with commercially available analogs with diverse substituents in the sulfonanilide ring of the scaffold. […] Keeping the 2-OMe substituent constant, we screened a small set of electron withdrawing and electron rich substituents at the 5-position of the anilide ring (entries 16–19). […] The analytical data for UCUF-728 is shown in Supplemental Figures S1–S4.

[2] = molecular target: T1, CXCR4 receptor; assay: cAMP signaling assay, forskolin-induced, PathHunter CHO-K1 CXCR4 cells
Procedure: The CXCR4 receptor is a G-protein coupled receptor (GPCR) coupled to the Gi class, whose primary role is inhibition of adenylate cyclase. We tested the ability of UCUF-728 to induce a Gi-mediated cAMP-inhibitory cellular response. […] (Figure 2B).
Forskolin at final concentration of 0.5 mM was added to all wells using the TECAN dispenser. […] of PathHunter CHO-K1 CXCR4 cells (DiscoverX, Fremont, CA, USA) were added to compounds at 3000 cells/well, centrifuged at 1000 rpm for 30 s and incubated for 30 min at room temperature. DMSO (Sigma Aldrich, St. Louis, MO, USA) was normalized to 0.5%. […] of 4X Eu-cAMP tracer working solution were added to all wells, followed by addition of 5 μL of 4X Ulight-anti-cAMP working solution to all wells. Plates were centrifuged at 1000 rpm for 1 min and incubated for 1 h at room temperature, then read using CLARIOstar Plus (BMG LABTECH Inc., Cary, NC, USA) Lance CAMP protocol.

[3] = test system: CEM-CCRF cells; assay: 96 wells transwell migration assay in CEM human lymphoblast cells
Text: Thus, to confirm CXCR4 functional activity, we evaluated UCUF-728 in a 96 wells transwell migration assay in CEM human lymphoblast cells. […] (Supplemental Figure S7). From the analog structure–activity relationship studies and characterization studies in the chemotaxis assay, cAMP signaling and CXCR4 binding assay, we identified UCUF-728 as a potent and functionally selective CXCR4 receptor modulator.
CEM-CCRF (ATCC CCL-119) were suspended in RPMI 1640 (Corning; 10-040-CV) at 5.0 × 10^5 cells/mL and allowed to incubate in cell culture incubator at 37 °C with 5% CO2 for one hour. […] Following 1 h cell incubation and compound dispensing, 150 μL of RPMI 1640 supplemented with 2% Fetal Bovine Serum was added to each well of the compound receiver tray, and 50 μL of 5 × 10^5 cells/mL cell suspension in RPMI were added to each well of the top filter plate. Plates were reassembled and placed in a cell culture incubator at 37 °C with 5% CO2 for three hours. After incubation, Multi-Screen plate was disassembled and 100 μL of solution was collected from compound receiver tray and transferred to 96 well luminescent plate and an equal volume of ATPLite 1step luminescence reagent (Perkin Elmer, Waltham, MA, USA) was added to each well. Luminescence was measured using the CLARIOstar Plus (BMG LABTECH Inc., Cary, NC, USA).

T1 sequence (P61073 whole entry): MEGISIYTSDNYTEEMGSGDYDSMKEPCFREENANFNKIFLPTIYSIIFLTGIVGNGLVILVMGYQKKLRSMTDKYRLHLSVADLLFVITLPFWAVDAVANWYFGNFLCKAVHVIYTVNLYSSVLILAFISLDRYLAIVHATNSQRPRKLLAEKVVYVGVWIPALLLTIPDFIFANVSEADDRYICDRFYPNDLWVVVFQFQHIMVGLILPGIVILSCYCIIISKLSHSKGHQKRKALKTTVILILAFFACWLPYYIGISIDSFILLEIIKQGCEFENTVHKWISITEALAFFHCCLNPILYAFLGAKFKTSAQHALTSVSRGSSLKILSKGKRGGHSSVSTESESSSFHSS

| Compound | EC50 [1] | Emax [1] | other results |
| --- | --- | --- | --- |
| COc1ccc(C)cc1NS(=O)(=O)c1ccc(-c2cnc(C3CC3)o2)cc1 [Compound 18] | 0.9 µM | 48% | – |
| Cc1ccc(NS(=O)(=O)c2ccc(-c3cnc(C4CC4)o3)cc2)c(C)c1 [Compound 12] | 3.4 µM | 38% | – |
| CCOc1ccc(NS(=O)(=O)c2ccc(-c3cnc(C4CC4)o3)cc2)cc1 [Compound 9] | 44.3 µM | 38% | – |
| O=S(=O)(Nc1ccccc1F)c1ccc(-c2cnc(C3CC3)o2)cc1 [Compound 7] | > 80 µM | – | – |
| COc1cccc(NS(=O)(=O)c2ccc(-c3cnc(C4CC4)o3)cc2)c1 [Compound 8] | > 80 µM | – | – |
| COc1ccc(NS(=O)(=O)c2ccc(-c3cnc(C4CC4)o3)cc2)cc1OC [Compound 20] | > 80 µM | – | – |
| Cc1cccc(C)c1NS(=O)(=O)c1ccc(-c2cnc(C3CC3)o2)cc1 [Compound 14] | 0.6 µM | 45% | – |
| c1cc(CN2CCCNCCNCCCNCC2)ccc1CN1CCCNCCNCCCNCC1 [AMD3100, reference compound] | – | – | block of SDF-1α inhibition of forskolin-induced cAMP ([2]; maximal response at 40 nM SDF-1α): dose-dependently blocked; IC50 ([3]; Homo sapiens, normalized to media only and 6nM SDF-1a, read-out: logIC50 inhibition of migration (converted)): 0.0316 µM |
| CCOc1ccccc1NS(=O)(=O)c1ccc(-c2cnc(C3CC3)o2)cc1 [Compound 5] | 1 µM | 46% | – |
| Cc1cccc(NS(=O)(=O)c2ccc(-c3cnc(C4CC4)o3)cc2)c1C [Compound 10] | 1.9 µM | 40% | – |
| COc1cc(NS(=O)(=O)c2ccc(-c3cnc(C4CC4)o3)cc2)cc(OC)c1 [Compound 21] | 5.6 µM | 48% | – |
| COc1ccc(F)cc1NS(=O)(=O)c1ccc(-c2cnc(C3CC3)o2)cc1 [Compound 17] | 7.3 µM | 42% | – |
| Cc1cc(C)cc(NS(=O)(=O)c2ccc(-c3cnc(C4CC4)o3)cc2)c1 [Compound 15] | 3.1 µM | 39% | – |
| COc1ccc(Cl)cc1NS(=O)(=O)c1ccc(-c2cnc(C3CC3)o2)cc1 [Compound 16] | 1.65 µM | 47% | – |
| O=S(=O)(Nc1ccccc1Cl)c1ccc(-c2cnc(C3CC3)o2)cc1 [Compound 6] | 22 µM | 35% | – |
| O=S(=O)(Nc1ccccc1)c1ccc(-c2cnc(C3CC3)o2)cc1 [Compound 1] | > 80 µM | – | – |
| CCc1ccccc1NS(=O)(=O)c1ccc(-c2cnc(C3CC3)o2)cc1 [Compound 3] | 2.6 µM | 38% | – |
| SDF-1α | – | – | inhibition of forskolin-induced adenylate cyclase (cAMP signaling) ([2]; CHO-K1 CXCR4 overexpressed cells): inhibited forskolin-induced adenylate cyclase; induction of cell migration ([3]; compound in lower channel, 3 h): induced migration in the typical bell-shaped curve |
| Cc1ccc(NS(=O)(=O)c2ccc(-c3cnc(C4CC4)o3)cc2)cc1C [Compound 11] | > 10 µM | – | – |
| Cc1ccccc1NS(=O)(=O)c1ccc(-c2cnc(C3CC3)o2)cc1 [Compound 2] | 5.9 µM | 27% | – |
| COc1ccccc1NS(=O)(=O)c1ccc(-c2cnc(C3CC3)o2)cc1 [Compound 4] | 6.1 µM | 45% | – |
| Cc1ccc(C)c(NS(=O)(=O)c2ccc(-c3cnc(C4CC4)o3)cc2)c1 [Compound 13] | 0.7 µM | 42% | – |
